One experiment has as its system FADD−/− Jurkat cells. Kind of experiment: Necroptosis inhibition assay, TNF-α-induced necroptosis (CellTiter-Glo 2.0). The settings on record: TNF-α 15 ng/mL; for Necroptosis inhibition assay (Rescue %) 1 μM: compound 1 μM; for Necroptosis inhibition assay (Rescue %) 10 μM: compound 10 μM. Type of experiment: cell-based, human. The procedure, abridged:
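Tested at three fixed concentrations (0.1, 1, 10 μM final) with a 30-minute room-temperature preincubation ahead of 15 ng/mL TNF-α challenge lasting 20 to 24 hours. Inhibition rate and cytotoxicity derive from ATP luminescence.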

The target of experiment [1] is T1, MLKL (Homo sapiens, UniProt Q8NB16).
T1 sequence (Q8NB16 1-471): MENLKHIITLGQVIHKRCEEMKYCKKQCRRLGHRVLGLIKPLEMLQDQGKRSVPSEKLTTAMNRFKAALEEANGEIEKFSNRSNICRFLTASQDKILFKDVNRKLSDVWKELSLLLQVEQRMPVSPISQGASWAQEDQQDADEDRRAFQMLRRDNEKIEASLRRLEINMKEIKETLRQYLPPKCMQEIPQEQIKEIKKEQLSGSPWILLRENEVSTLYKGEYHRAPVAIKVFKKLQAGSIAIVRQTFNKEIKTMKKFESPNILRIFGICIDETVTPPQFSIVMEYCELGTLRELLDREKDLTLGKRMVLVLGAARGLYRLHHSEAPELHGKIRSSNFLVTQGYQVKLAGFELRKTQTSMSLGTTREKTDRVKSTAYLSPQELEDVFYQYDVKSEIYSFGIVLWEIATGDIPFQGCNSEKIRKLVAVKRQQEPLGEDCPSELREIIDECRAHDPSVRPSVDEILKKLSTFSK
Kind of experiment: Measurement of binding affinity with MLKL receptor (competitive binding assay, Kd). More on the design: made in house; host or cells: HEK 293 cell line (T7 phage in E. coli BL21-derived host is also described). The procedure, abridged:
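qPCR of MLKL eluted from liganded beads served as the read-out, from which Kd was derived. The protein was made in HEK 293 cells with a DNA tag, and test compounds competed with the bead-bound ligand at 0.9% final DMSO.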

For experiment [2], the target named is T1, MLKL. The experiment in a line: MLKL degradation assay in HepG2 cell line (western blot). In kind it is cell-based. Details: endogenous in cells; host or cells: HepG2 or HaCaT. The settings on record: cell line not given; for Degradation assay (Degradation %) 1 μM: compound 1 μM; for Degradation assay (Degradation %) 10 μM: compound 10 μM. The essentials:
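Degradation is judged from MLKL band intensity on immunoblots of HepG2 lysates taken after 20-24 hours of compound at final 1 or 10 μM.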

SMILES strings stand for the structures.

Regarding `Nc1ncc(-c2cnn(C3CCN(C(=O)COCCOCCNC(=O)CNc4ccc5c(c4)C(=O)N(C4CCC(=O)NC4=O)C5=O)CC3)c2)nc1C(=O)O[C@@H](C(=O)Nc1ccc(F)cc1)c1ccccc1` (stereo partly drawn) [TDH-191, (R)-2-((4-fluorophenyl)amino)-2-oxo-1-phenylethyl 3-amino-6-(1-(1-(2-(2-(2-(2-((2-(2,6-dioxopiperidin-3-yl)-1,3-dioxoisoindolin-5-yl)amino)acetamido)ethoxy)ethoxy)acetyl)piperidin-4-yl)-1H-pyrazol-4-yl)pyrazine-2-carboxylate], in the experiment with FADD−/− Jurkat cells, the “Necroptosis inhibition assay (Rescue %) 1 μM” value came to 77.85% and the “Necroptosis inhibition assay (Rescue %) 10 μM” value is on record as 49.93%. Also, the affinity at MLKL [1], expressed as Kd, was 4.9 nM. In addition, on MLKL [2], the “Degradation assay (Degradation %) 1 μM” value was 44.99% and the “Degradation assay (Degradation %) 10 μM” value stood at 5.25%.
On to `Nc1ncc(-c2cnn(C3CCN(CC4CCN(C(=O)C5CN(c6ccc7c(c6)C(=O)N(C6CCC(=O)NC6=O)C7=O)C5)CC4)CC3)c2)nc1C(=O)O[C@@H](C(=O)Nc1ccc(F)cc1)c1ccccc1` (stereo partly drawn) [TDH-145, (R)-2-((4-fluorophenyl)amino)-2-oxo-1-phenylethyl 3-amino-6-(1-(1-((1-(1-(2-(2,6-dioxopiperidin-3-yl)-1,3-dioxoisoindolin-5-yl)azetidine-3-carbonyl)piperidin-4-yl)methyl)piperidin-4-yl)-1H-pyrazol-4-yl)pyrazine-2-carboxylate], for which, in the experiment with FADD−/− Jurkat cells, the “Necroptosis inhibition assay (Rescue %) 1 μM” value is given as 51.47% and the “Necroptosis inhibition assay (Rescue %) 10 μM” value is 40.41%. In addition, at MLKL [1], binding was put at a Kd of 2.5 nM. On MLKL [2], the “Degradation assay (Degradation %) 1 μM” value turned out to be 36.97% and the “Degradation assay (Degradation %) 10 μM” value was 55.66%.
On to `COc1ccc(C(=O)N2CCC(C(=O)N3CCC(CCN4CCC(CN5CCC(n6cc(-c7cnc(N)c(C(=O)O[C@@H](C(=O)Nc8ccc(F)cc8)c8ccccc8)n7)cn6)CC5)CC4)CC3)CC2)cc1N1CCC(=O)NC1=O` [TDH-502, (R)-2-((4-fluorophenyl)amino)-2-oxo-1-phenylethyl 3-amino-6-(1-(1-((1-(2-(1-(1-(3-(2,4-dioxotetrahydropyrimidin-1(2H)-yl)-4-methoxybenzoyl)piperidine-4-carbonyl)piperidin-4-yl)ethyl)piperidin-4-yl)methyl)piperidin-4-yl)-1H-pyrazol-4-yl)pyrazine-2-carboxylate], for which, in the experiment on FADD−/− Jurkat cells (FADD−/− Jurkat cells), the “Necroptosis inhibition assay (Rescue %) 1 μM” value was determined as 54.75% and the “Necroptosis inhibition assay (Rescue %) 10 μM” value was 66.18%. Also, binding at MLKL [1] was put at a Kd of 0.42 nM. For the same compound, on MLKL [2], the “Degradation assay (Degradation %) 1 μM” value amounted to 85.39% and the “Degradation assay (Degradation %) 10 μM” value is listed as 91.54%.
`Nc1ncc(-c2cnn(C3CCN(CC4CCN(CC(=O)NC5CCN(c6ccc7c(c6)C(=O)N(C6CCC(=O)NC6=O)C7=O)CC5)CC4)CC3)c2)nc1C(=O)OC(C(=O)Nc1ccc(F)cc1)c1ccccc1` (centres unmarked) [TDH-272, 2-((4-fluorophenyl)amino)-2-oxo-1-phenylethyl 3-amino-6-(1-(1-((1-(2-((1-(2-(2,6-dioxopiperidin-3-yl)-1,3-dioxoisoindolin-5-yl)piperidin-4-yl)amino)-2-oxoethyl)piperidin-4-yl)methyl)piperidin-4-yl)-1H-pyrazol-4-yl)pyrazine-2-carboxylate]: in the experiment on FADD−/− Jurkat cells, the “Necroptosis inhibition assay (Rescue %) 1 μM” value stood at 60.73% and the “Necroptosis inhibition assay (Rescue %) 10 μM” value is given as 72.92%. In addition, binding on MLKL [1] was put at a Kd of 13 nM. Further, on MLKL [2], the “Degradation assay (Degradation %) 1 μM” value amounted to 23.54% and the “Degradation assay (Degradation %) 10 μM” value was found to be 44.2%.
Turning to `Nc1ncc(-c2cnn(C3CCN(C(=O)CCC4CCN(C(=O)C5CCN(c6ccc7c(c6)C(=O)N(C6CCC(=O)NC6=O)C7=O)CC5)CC4)CC3)c2)nc1C(=O)O[C@@H](C(=O)Nc1ccc(F)cc1)c1ccccc1` (stereo partly drawn) [TDH-418, (R)-2-((4-fluorophenyl)amino)-2-oxo-1-phenylethyl 3-amino-6-(1-(1-(3-(1-(1-(2-(2,6-dioxopiperidin-3-yl)-1,3-dioxoisoindolin-5-yl)piperidine-4-carbonyl)piperidin-4-yl)propanoyl)piperidin-4-yl)-1H-pyrazol-4-yl)pyrazine-2-carboxylate], in the experiment on FADD−/− Jurkat cells (FADD−/− Jurkat cells), the “Necroptosis inhibition assay (Rescue %) 1 μM” value is recorded as 28.11% and the “Necroptosis inhibition assay (Rescue %) 10 μM” value was determined as 17.31%. Binding on MLKL [1] was characterised by a dissociation constant (Kd) of 4 nM. On MLKL [2], the “Degradation assay (Degradation %) 1 μM” value came to 79.05% and the “Degradation assay (Degradation %) 10 μM” value was 58.33%.
`Nc1ncc(-c2cnn(C3CCN(CCOC4CCN(C(=O)CNc5cccc6c5C(=O)N(C5CCC(=O)NC5=O)C6=O)CC4)CC3)c2)nc1C(=O)OC(C(=O)Nc1ccc(F)cc1)c1ccccc1` (centres unmarked) [TDH-249, 2-((4-fluorophenyl)amino)-2-oxo-1-phenylethyl 3-amino-6-(1-(1-(2-((1-((2-(2,6-dioxopiperidin-3-yl)-1,3-dioxoisoindolin-4-yl)glycyl)piperidin-4-yl)oxy)ethyl)piperidin-4-yl)-1H-pyrazol-4-yl)pyrazine-2-carboxylate]: in the experiment on FADD−/− Jurkat cells, the “Necroptosis inhibition assay (Rescue %) 1 μM” value was found to be 45.5% and the “Necroptosis inhibition assay (Rescue %) 10 μM” value turned out to be 44.81%. Moreover, at MLKL [1], the dissociation constant Kd (in general, the equilibrium constant for the complex coming apart) came out at 5.4 nM. Also, on MLKL [2], the “Degradation assay (Degradation %) 1 μM” value was 35.81% and the “Degradation assay (Degradation %) 10 μM” value was determined as 28.42%.
For the compound `Nc1ncc(-c2cnn(C3CCN(C(=O)CCC4CCN(C(=O)C5CN(c6ccc7nnn(C8CCC(=O)NC8=O)c(=O)c7c6)C5)CC4)CC3)c2)nc1C(=O)O[C@@H](C(=O)Nc1ccc(F)cc1)c1ccccc1` (stereo partly drawn) [TDH-438, (R)-2-((4-fluorophenyl)amino)-2-oxo-1-phenylethyl 3-amino-6-(1-(1-(3-(1-(1-(3-(2,6-dioxopiperidin-3-yl)-4-oxo-3,4-dihydrobenzo[d][1,2,3]triazin-6-yl)azetidine-3-carbonyl)piperidin-4-yl)propanoyl)piperidin-4-yl)-1H-pyrazol-4-yl)pyrazine-2-carboxylate], in the experiment on FADD−/− Jurkat cells (FADD−/− Jurkat cells), the “Necroptosis inhibition assay (Rescue %) 1 μM” value is recorded as 26.37% and the “Necroptosis inhibition assay (Rescue %) 10 μM” value is 13.48%. Moreover, the Kd at MLKL [1] was found to be 4.5 nM. For the same compound, at MLKL [2], the “Degradation assay (Degradation %) 1 μM” value is recorded as 86.72% and the “Degradation assay (Degradation %) 10 μM” value worked out at 78.91%.
Consider `Nc1ncc(-c2cnn(C3CCN(C(=O)CC4CCN(c5cccc6c5C(=O)N(C5CCC(=O)NC5=O)C6=O)CC4)CC3)c2)nc1C(=O)O[C@@H](C(=O)Nc1ccc(F)cc1)c1ccccc1` (stereo partly drawn) [TDH-343, (R)-2-((4-fluorophenyl)amino)-2-oxo-1-phenylethyl 3-amino-6-(1-(1-(2-(1-(2-(2,6-dioxopiperidin-3-yl)-1,3-dioxoisoindolin-4-yl)piperidin-4-yl)acetyl)piperidin-4-yl)-1H-pyrazol-4-yl)pyrazine-2-carboxylate], for which, in the experiment on FADD−/− Jurkat cells, the “Necroptosis inhibition assay (Rescue %) 1 μM” value amounted to 12.75% and the “Necroptosis inhibition assay (Rescue %) 10 μM” value amounted to 14.42%. Further, the dissociation constant Kd on MLKL [1] was 11 nM. On MLKL [2], the “Degradation assay (Degradation %) 1 μM” value was 31.43% and the “Degradation assay (Degradation %) 10 μM” value was 43.78%.
Take `Nc1ncc(-c2cn(C3CCN(CC4CCN(C(=O)CNc5ccc6c(c5)C(=O)N(C5CCC(=O)NC5=O)C6=O)CC4)CC3)nn2)nc1C(=O)OC(C(=O)Nc1ccc(F)cc1)c1ccccc1` (centres unmarked) [TDH-223, 2-((4-fluorophenyl)amino)-2-oxo-1-phenylethyl 3-amino-6-(1-(1-((1-((2-(2,6-dioxopiperidin-3-yl)-1,3-dioxoisoindolin-5-yl)glycyl)piperidin-4-yl)methyl)piperidin-4-yl)-1H-1,2,3-triazol-4-yl)pyrazine-2-carboxylate]: in the experiment on FADD−/− Jurkat cells, the “Necroptosis inhibition assay (Rescue %) 1 μM” value amounted to 34.97% and the “Necroptosis inhibition assay (Rescue %) 10 μM” value is given as 23.64%. On MLKL [1], this compound registered a Kd of 23 nM. On MLKL [2], the “Degradation assay (Degradation %) 1 μM” value came to 29.38% and the “Degradation assay (Degradation %) 10 μM” value is reported as 12.51%.
Regarding `Nc1ncc(-c2ccc(N3CCN(CC4CCN(C(=O)COc5cccc6c5C(=O)N(C5CCC(=O)NC5=O)C6=O)CC4)CC3)nc2)nc1C(=O)OC(C(=O)Nc1ccc(F)cc1)c1ccccc1` (centres unmarked) [TDH-255, 2-((4-fluorophenyl)amino)-2-oxo-1-phenylethyl 3-amino-6-(6-(4-((1-(2-((2-(2,6-dioxopiperidin-3-yl)-1,3-dioxoisoindolin-4-yl)oxy)acetyl)piperidin-4-yl)methyl)piperazin-1-yl)pyridin-3-yl)pyrazine-2-carboxylate], in the experiment with FADD−/− Jurkat cells, the “Necroptosis inhibition assay (Rescue %) 1 μM” value is recorded as 46.68% and the “Necroptosis inhibition assay (Rescue %) 10 μM” value was 32.39%. At MLKL [1], this compound registered a Kd of 41 nM. Besides, on MLKL [2], the “Degradation assay (Degradation %) 1 μM” value came to 35.59% and the “Degradation assay (Degradation %) 10 μM” value is recorded as 34.35%.

(Values after patent US20240252488A1 (KOREA RESEARCH INSTITUTE OF CHEMICAL TECHNOLOGY, priority 2020, published 2024).)
